Assay results taken from ChEMBL document CHEMBL1138444 (J Med Chem, 2009).

What was measured:
[1] = in vitro; settings: rat, microsomes
[2] = in vitro; settings: human, microsomes
[3] = species on record: Mus musculus; experiment: animal or person; settings: NSA, ip, read-out: INH
[4] = species on record: Mus musculus; experiment: animal or person; settings: NSA, ip, read-out: INH; remark: listed apart in the source
[5] = species on record: Rattus norvegicus; settings: in vivo
[6] = in vivo; settings: rat
[7] = in vivo; settings: rat; remark: listed apart in the source
[8] = in vivo; settings: rat, brain and plasma, ip
[9] = in vivo; settings: rat, po
[10] = in vivo; settings: rat; remark: listed apart in the source
[11] = species on record: Rattus norvegicus; experiment: animal or person; settings: Sprague-Dawley, po, read-out: INH
[12] = physchem; settings: polyethylene glycol

SMILES | microsomal CLint [1] | microsomal CLint [2] | inhibition in vivo at 1 mg/kg [3] | inhibition in vivo at 3 mg/kg [4] | clearance [5] | Cmax [6] | half-life [7] | Kp [8] | bioavailability [9] | Tmax [10] | inhibition in vivo at 10 mg/kg [11] | solubility [12]
CCCC1=Nc2cc(C(=O)NC3CCN(C(=O)OCC)CC3)ccc2Sc2ccccc21 | 539 µL/min/mg | 279 µL/min/mg | – | – | – | – | – | – | – | – | – | –
O=C(NCc1cccc(Cl)c1)c1ccc2c(c1)N=C(N1CCC(F)(F)CC1)c1ccccc1S2 | 66 µL/min/mg | 40 µL/min/mg | – | – | – | – | – | – | – | – | – | –
O=C(NCc1cccc(Cl)c1)c1ccc2c(c1)N=C(N1CCCCC1)c1ccccc1S2 | 644 µL/min/mg | 265 µL/min/mg | – | – | – | – | – | – | – | – | – | –
CN/C(=N\S(=O)(=O)c1ccc(Cl)cc1)N1C[C@H](c2ccccc2)C(c2ccc(Cl)cc2)=N1 (racemic) [IBIPINABANT] | – | – | 51% | 82% | – | – | – | – | – | – | – | –
O=C(NN1CCCCC1)c1ccc2c(c1)N=C(C1CCCCC1)c1ccccc1S2 | 846 µL/min/mg | 84 µL/min/mg | – | – | 7.36 mL/min/kg | 651 nM | 2.1 h | 4 | 13% | 0.5 h | – | –
CC(C)CNC(=O)c1ccc2c(c1)N=C(c1ccc(Cl)s1)c1ccccc1S2 | – | – | – | 73% | – | – | – | – | – | – | 54% | –
CCCCNC(=O)c1ccc2c(c1)N=C(c1ccc(Cl)cc1)c1ccccc1S2 | 89 µL/min/mg | 24 µL/min/mg | 71% | 82% | 0.51 mL/min/kg | 677 nM | 5.8 h | – | 25% | 6 h | 69% | > 3.7 mg/mL
CCCCNC(=O)c1ccc2c(c1)N=C(c1ccc(Cl)c(Cl)c1)c1ccccc1S2 | 32 µL/min/mg | – | – | 58% | – | – | – | – | – | – | – | > 14 mg/mL
CCCCNC(=O)c1ccc2c(c1)N=C(c1ccc(F)c(Cl)c1)c1ccccc1S2 | 58 µL/min/mg | 16 µL/min/mg | 70% | 94% | – | – | – | – | – | – | 59% | > 13 mg/mL
Cc1c(C(=O)NN2CCCCC2)nn(-c2ccc(Cl)cc2Cl)c1-c1ccc(Cl)cc1 [RIMONABANT] | 159 µL/min/mg | 41 µL/min/mg | 70% | – | – | – | – | – | – | – | 55% | –
